Data as given in ChEMBL document CHEMBL1201862, “PubChem BioAssay data set” (2004).
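How tested: cells in 96-well plates exposed to compound for 48 hours at five concentrations. GI50 is the concentration that inhibits growth by half.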 Calls of active or inactive are those of the source. Rule as the data show it: active = GI50 up to about 1.1 µM and inactive = higher.

Legend:
Experiment in all cases: NCI anticancer screen, dose series, 48 h
A549 = test system: A549
OVCAR-4 = test system: OVCAR-4
ACHN = test system: ACHN
CCRF-CEM = test system: CCRF-CEM
HCC 2998 = test system: HCC 2998
MDA-N = test system: MDA-N
SF-295 = test system: SF-295
T47D = test system: T47D
SK-OV-3 = test system: SK-OV-3
NCI-H226 = test system: NCI-H226
NCI-H23 = test system: NCI-H23
MDA-MB-231 = test system: MDA-MB-231
EKVX = test system: EKVX
OVCAR-8 = test system: OVCAR-8
MCF7 = test system: MCF7
MDA-MB-435 = test system: MDA-MB-435
DU-145 = test system: DU-145
SW-620 = test system: SW-620
SN12C = test system: SN12C
786-0 = test system: 786-0

Structure (SMILES)	GI50 (A549)	GI50 (OVCAR-4)	GI50 (ACHN)	GI50 (CCRF-CEM)	GI50 (HCC 2998)	GI50 (MDA-N)	GI50 (SF-295)	GI50 (T47D)	GI50 (SK-OV-3)	GI50 (NCI-H226)	GI50 (NCI-H23)	GI50 (MDA-MB-231)	GI50 (EKVX)	GI50 (OVCAR-8)	GI50 (MCF7)	GI50 (MDA-MB-435)	GI50 (DU-145)	GI50 (SW-620)	GI50 (SN12C)	GI50 (786-0)
O=C1C(Cl)=C(N2CCC[C@@H]2CO)C(=O)c2c(O)ccc(O)c21	2.08 µM (inactive)	1.76 µM (inactive)	1.6 µM (inactive)	0.244 µM (active)	2.02 µM (inactive)	1.54 µM (inactive)	1.79 µM (inactive)	1.78 µM (inactive)	2.9 µM (inactive)	1.71 µM (inactive)	1.64 µM (inactive)	2.02 µM (inactive)	1.87 µM (inactive)	2 µM (inactive)	1.16 µM (inactive)	1.51 µM (inactive)	1.84 µM (inactive)	1.4 µM (inactive)	1.79 µM (inactive)	1.76 µM (inactive)
O=c1ss/c(=N\c2ccccc2)n1-c1ccccc1	35.4 µM (inactive)	17 µM (inactive)	17.1 µM (inactive)	4.14 µM (inactive)	36.8 µM (inactive)	34.5 µM (inactive)	> 100 µM (inactive)	16.3 µM (inactive)	> 100 µM (inactive)	20.1 µM (inactive)	21.7 µM (inactive)	25.9 µM (inactive)	33.7 µM (inactive)	16.8 µM (inactive)	19.5 µM (inactive)	31.9 µM (inactive)	16.9 µM (inactive)	24.4 µM (inactive)	20.4 µM (inactive)	18.3 µM (inactive)
O=C(COC(c1ccc(F)cc1)c1ccc(F)cc1)N1CCN(CCCc2ccccc2)CC1	3.93 µM (inactive)	3.24 µM (inactive)	3.52 µM (inactive)	7.62 µM (inactive)	3.59 µM (inactive)	3.74 µM (inactive)	4.04 µM (inactive)	3.3 µM (inactive)	6.97 µM (inactive)	3.01 µM (inactive)	1.76 µM (inactive)	3.22 µM (inactive)	4.44 µM (inactive)	3.54 µM (inactive)	3.32 µM (inactive)	3.67 µM (inactive)	4.44 µM (inactive)	5.15 µM (inactive)	3.01 µM (inactive)	3.94 µM (inactive)
O=C(CCC(C(=O)OCc1ccccc1)C(=O)OCc1ccccc1)Nc1ccc(OCc2ccccc2)cc1	35.9 µM (inactive)	47.1 µM (inactive)	> 100 µM (inactive)	47.5 µM (inactive)	> 100 µM (inactive)	49.8 µM (inactive)	> 100 µM (inactive)	91.6 µM (inactive)	> 100 µM (inactive)	> 100 µM (inactive)	40.3 µM (inactive)	22.6 µM (inactive)	> 100 µM (inactive)	14.7 µM (inactive)	13.2 µM (inactive)	67.8 µM (inactive)	> 100 µM (inactive)	> 100 µM (inactive)	> 100 µM (inactive)	16.2 µM (inactive)
COc1ccc(OC)c(CSc2ccc(OC)c(OC)c2)c1	> 79.4 µM (inactive)	31.4 µM (inactive)	> 100 µM (inactive)	> 100 µM (inactive)	97.1 µM (inactive)	> 77.6 µM (inactive)	> 81.5 µM (inactive)	10.6 µM (inactive)	> 100 µM (inactive)	> 71.4 µM (inactive)	82 µM (inactive)	> 93.5 µM (inactive)	62.4 µM (inactive)	> 95.3 µM (inactive)	> 100 µM (inactive)	> 79.4 µM (inactive)	> 100 µM (inactive)	> 100 µM (inactive)	> 100 µM (inactive)	> 100 µM (inactive)
COC1C(O)C(C)OC(OC2C(Oc3cccc4c(O)c5c(=O)oc6ccc(C)c7c(=O)oc(c34)c5c67)OC(C)C(O)C2O)C1O (stereo not given)	6.14 µM (inactive)	6.24 µM (inactive)	4.98 µM (inactive)	0.836 µM (active)	2.16 µM (inactive)	2.01 µM (inactive)	1.29 µM (inactive)	0.968 µM (active)	4.37 µM (inactive)	1.35 µM (inactive)	1.28 µM (inactive)	1.67 µM (inactive)	1.34 µM (inactive)	1.15 µM (inactive)	0.757 µM (active)	2.07 µM (inactive)	6.65 µM (inactive)	0.843 µM (active)	2.52 µM (inactive)	0.91 µM (active)
Nc1nc(=O)c2cc(NCc3ccc(C(=O)NC(CCC(=O)O)C(=O)O)cc3)ccc2[nH]1 (stereo not given)	80.7 µM (inactive)	> 100 µM (inactive)	4.31 µM (inactive)	> 100 µM (inactive)	39.8 µM (inactive)	> 100 µM (inactive)	61.8 µM (inactive)	> 100 µM (inactive)	> 100 µM (inactive)	> 100 µM (inactive)	> 100 µM (inactive)	> 100 µM (inactive)	> 100 µM (inactive)	68.2 µM (inactive)	6.56 µM (inactive)	> 100 µM (inactive)	> 100 µM (inactive)	> 100 µM (inactive)	85.5 µM (inactive)	> 100 µM (inactive)
